How the values were obtained:
Hela cells = assay: Identifying the nascent proteome in Hela cells using OP-puro (click chemistry with biotin azide, NeutrAvidin affinity purification, Western blot/silver stain, MS/MS); format: cell-based, human
Experimental: FIG. 3 is a set of two images of gels that show selective enrichment of newly synthesized proteins in Hela cells treated with OP-puro relative to those treated with puromycin. Hela cells were treated with either 50 μM OP-puro or puro (as indicated) for one hour. Cells were then harvested in PBS+1% SDS (sodium dodecyl sulfate) and lysed. Lysates were diluted in 0.1% SDS and incubated with biotin azide using a click reaction for one hour. Biotinylated proteins were affinity purified using NeutrAvidin agarose beads. Eluted proteins were resolved using a 4-12% gradient SDS-PAGE gel and detected by either Western blot with streptavidin-HRP (left gel) or by silver stain (right gel). The lanes reflect input (I), supernatant (S), or pull-down (P) as indicated.
OP-puro can identify newly synthesized proteins in a defined timeframe in mammalian cells grown in culture. Newly synthesized proteins were identified in Hela cells using OP-puro, followed by click chemistry, affinity purification, and MS/MS analysis. OP-puro was synthesized according to Liu et al, 2012 supra.
To prepare samples for MS/MS analysis, the captured biotinylated proteins from the OP-puro and puro (used as a background control) treated cells were alkylated and digested on the agarose beads using trypsin. The peptides were analyzed using a capillary HPLC system coupled online with an LTQ orbitrap mass spectrometer. […] These peptides identified 530 different human proteins, which represents ˜5% of the total Hela proteome (Nagaraj et al 2011 supra).

[1] = Stability of PhAc-OP-puro in mouse plasma by LCMS; format: in vitro ADME; conditions: in vitro, for up to 40 min
Experimental: FIG. 6 is a plot of the results of incubating PhAc-OP-puro in mouse plasma for the indicated period of time. Stability of PhAc-OP-puro was monitored by liquid chromatography mass spectrometry.
As shown above, PhAc-OP-puro is stable in cell culture and is not converted to OP-puro in wild type cells. To use PhAc-OP-puro in an animal system such as mice, the in vitro stability of PhAc-OP-puro in plasma should be determined. Plasma typically contains high esterase activity that could result in cleavage of the carbamate linkage in PhAc-OP-puro. Cleavage of PhAc-OP-puro at the carbamate linkage would generate OP-puro, and therefore would not allow use of the disclosed method in intact mice. While there are several examples of drugs containing carbamates (Chaturvedi D, Tetrahedron 68, 15 (2012); incorporated by reference herein), it is unpredictable whether or not a particular carbamate is resistant to esterases in plasma.
The potential esterase-dependent metabolism of PhAc-OP-puro in mouse plasma was assessed by liquid chromatography mass spectrometry (LCMS). PhAc-OP-puro was determined to be stable in mouse plasma for up to 40 min (FIG. 6).

[2] = test system: HEK293T cells transfected with PGA-IRES-GFP or control plasmid; assay: Deblocking of PhAc-OP-puro by PGA in HEK 293T cells transfected with PGA-IRES-GFP or control plasmid (biotin azide click, Streptavidin-HRP dot blot/Western blot); format: cell-based, human
Experimental: FIG. 4A is a dot blot and a bar graph showing HEK293T cells transfected with either a PGA IRES GFP or a control plasmid (as indicated) using calcium phosphate transfection. Twenty-four hours after transfection, cells were treated with 5 or 50 μM of DMSO (negative control), OP-puro, or PhAc-OP-puro as indicated for 30 minutes. Cells were harvested in PBS+1% SDS. Lysates were diluted 10× and incubated with biotin azide under click reaction conditions for one hour. Lysates were spotted onto nitrocellulose and biotinylated proteins detected with Streptavidin-HRP (top panel). Dot intensity was quantified using Image) and graphed (bottom panel).
FIG. 4B is a set of two images of gels showing proteins from three of the samples described in FIG. 4A resolved by 4-12% gradient SDS-PAGE and detected by Western blot with Streptavidin-HRP (left panel) or Ponceau S staining (right panel) Bands marked with an asterisk are endogenous cellular biotinylated proteins.
In E. coli, PGA is expressed as a precursor protein containing a signal sequence that targets it to the bacterial periplasm, where it is processed and activated (Kasche et al, Biochem Biophys Acta 1433, 76 (1999); incorporated by reference herein). Previous studies, however, have shown that by removing the signal sequence, PGA can be expressed in the cytoplasm of the methylotrophic yeast, Pichia pastoris (Maresova H et al, BMC Biotechnol 10, 7 (2010); incorporated by reference herein). Importantly, this cytoplasmic variant of PGA was as active as wild type (WT) PGA expressed in bacteria (Maresova H et al, 2010 supra). However, to date, no one had shown whether or not PGA could be expressed in mammalian cells or any cells derived from a multicellular organism. A construct (PGA-IRES-GFP) was the designed, the construct comprising a variant of PGA lacking the signal sequence described above, and an IRES-GFP for co-cistronic expression of GFP to identify transfected cells.
The incorporation of OP-puro into newly synthesized proteins was detected using click chemistry with biotin azide. […] (FIG. 4A).

[3] = test system: HEK 293T cells transfected with PGA-IRES-GFP; assay: Cell-specific labeling of newly synthesized proteins in single HEK 293T cells (click chemistry with Alexa Fluor-568 azide, fluorescence microscopy); format: cell-based, human; conditions: 5 μM, 30 min
Experimental: FIG. 5A is a set of 12 images of HEK 293T cells transfected with PGA-IRES-GFP or controls as indicated using calcium phosphate transfection. In two of the conditions, PGA-IRES-GFP transfected cells were mixed with nontransfected cells such that the total population of transfected cells was 5%. At a timepoint 24 hours post transfection, cells were treated with either a DMSO control or 5 μM PhAc-OP-puro for 30 minutes as indicated. Cells were then fixed with methanol and nascent protein synthesis detected by click chemistry with Alexa Fluor-568 azide. After click chemistry, cells were labeled with an antibody specific for GFP. Total cells were detected by DAPI.
In cells treated with PhAc-OP-puro (5 μM, 30 min), labeling of newly synthesized proteins (OP-puro-tagged peptides) is detected in PGA-expressing cells (identified by GFP) (FIG. 5A). The amount of labeling appeared to correlate with the expression levels of PGA as determined by comparing the fluorescence intensity of the OP-puro tagged peptides to the fluorescence intensity of GFP.

[4] = OP-puro treated Hela cells, puro as background control

C#CCOc1ccc(C[C@H](N)C(=O)N[C@H]2[C@@H](O)[C@H](n3cnc4c(N(C)C)ncnc43)O[C@@H]2CO)cc1 [OP-puro, O-propargyl puromycin]
biotinylated proteins in NeutrAvidin eluates (Western blot with streptavidin-HRP) (Hela cells; Hela cells, 50 μM, one hour): presence of biotinylated proteins | fraction of the total Hela proteome represented by identified proteins (Hela cells; OP-puro treated Hela cells): ~5% | different human proteins identified (Hela cells; [4]): 530 | peptides with unique amino acid sequences identified by MS/MS (Hela cells; [4]): 1,600

C#CCOc1ccc(C[C@H](NC(=O)OCc2ccc(NC(=O)Cc3ccccc3)cc2)C(=O)NC2C(CO)OC(n3cnc4c(N(C)C)ncnc43)C2O)cc1 (stereo partly shown) [PhAc-OP-puro]
stability in mouse plasma [1]: stable | incorporation into newly synthesized proteins (biotin signal) ([2]; HEK 293T cells transfected with PGA-IRES-GFP, 5 μM, 30 min): prominent biotin signal | time for complete conversion to OP-puro ([2]; PGA-IRES-GFP transfected HEK 293T cells, 5 μM): ≤ 30 min | induction of the unfolded protein response ([2]; PGA-IRES-GFP transfected HEK 293T cells, 5 μM, 30 min): no observed induction | signal intensity relative to OP-puro control ([2]; PGA-IRES-GFP transfected HEK 293T cells, 5 μM, 30 min, versus control transfected cells with OP-puro 5 μM): the same as that of control transfected cells treated with OP-puro | activity (labeling of proteins) in the absence of PGA ([2]; control transfected HEK 293T cells, up to 50 μM): completely inert | labeling of newly synthesized proteins (OP-puro-tagged peptides) in PGA-expressing cells ([3]; PGA-expressing cells identified by GFP): detected | labeling of newly synthesized proteins in cells not expressing PGA ([3]; cells not expressing PGA): No labeling was detected

COc1ccc(C[C@H](N)C(=O)N[C@H]2[C@@H](O)[C@H](n3cnc4c(N(C)C)ncnc43)O[C@@H]2CO)cc1 [puro, puromycin]
silver stain of NeutrAvidin eluates (Hela cells; Hela cells, 50 μM, one hour): no detectable staining

Reference: patent US20160176919A1, “CELL SPECIFIC LABELING OF NEWLY SYNTHESIZED PROTEINS” (OREGON HEALTH & SCIENCE UNIVERSITY, priority 2014, published 2016)
